What was measured:
Assay in all cases: Test B pre-/postemergence plant response
Assay type in all cases: in vivo
[1] = tested on: green foxtail (Setaria viridis); conditions: Postemergence
Procedure, shortened: (§1)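 Each species received compound formulated in non-phytotoxic solvent with surfactant, either at planting into a loam and sand blend or as a foliar spray once plants reached 2 to 18 cm in peat-based medium. Plants stayed in the greenhouse 13 to 15 days before visual evaluation against controls, scored 0 (no effect) to 100 (complete control).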

kochia (Kochia scoparia) = conditions: Postemergence
Procedure, shortened: as §1

[2] = tested on: yellow nutsedge (Cyperus esculentus); conditions: Postemergence
Procedure, shortened: as §1

soybean (Glycine max) = conditions: Postemergence
Procedure, shortened: as §1

[3] = tested on: blackgrass (Alopecurus myosuroides); conditions: for Blackgrass plant response rating (0 to 100 scale): 62 g ai/ha, postemergence, 0 is no effect, 100 is complete control; for Plant response rating, Blackgrass: Postemergence
Procedure, shortened: as §1

[4] = tested on: goosegrass (Eleusine indica); conditions: Postemergence
Procedure, shortened: as §1

[5] = tested on: johnsongrass (Sorghum halepense); conditions: Postemergence
Procedure, shortened: as §1

[6] = tested on: velvetleaf (Abutilon theophrasti); conditions: Postemergence
Procedure, shortened: as §1

[7] = tested on: cocklebur (Xanthium strumarium); conditions: Postemergence
Procedure, shortened: as §1

[8] = tested on: morningglory (Ipomoea coccinea); conditions: Postemergence
Procedure, shortened: as §1

corn (Zea mays) = conditions: Postemergence
Procedure, shortened: as §1

[9] = tested on: Surinam grass (Brachiaria decumbens); conditions: Postemergence
Procedure, shortened: as §1

[10] = tested on: giant foxtail (Setaria faberii); conditions: Postemergence
Procedure, shortened: as §1

[11] = tested on: downy bromegrass (Bromus tectorum); conditions: for Bromegrass, Downy plant response rating (0 to 100 scale): 62 g ai/ha, postemergence, 0 is no effect, 100 is complete control; for Plant response rating, Bromegrass, Downy: Postemergence
Procedure, shortened: as §1

[12] = tested on: woolly cupgrass (Eriochloa villosa); conditions: Postemergence
Procedure, shortened: as §1

wild oat (Avena fatua) = conditions: Postemergence
Procedure, shortened: as §1

[13] = tested on: large crabgrass (Digitaria sanguinalis); conditions: Postemergence
Procedure, shortened: as §1

[14] = 31 g ai/ha, 0 to 100 scale (0 no effect, 100 complete control)
[15] = 125 g ai/ha, scale 0 to 100 (0 no effect, 100 complete control)
[16] = 250 g ai/ha, scale 0 to 100 (0 no effect, 100 complete control), 13 to 15 days

Compound: O=C1CCCC(O)=C1C(=O)c1cnc(C2CC2)n(C2CCCCC2)c1=O [Compound 160]
- Plant response rating, Foxtail, Green [1, 14]: 55
- Plant response rating, Foxtail, Green [1, 15]: 70
- Plant response rating, Foxtail, Green [1, 16]: 98
- Plant response rating, Kochia (kochia (Kochia scoparia); [14]): 90
- Plant response rating, Kochia (kochia (Kochia scoparia); [15]): 100
- Plant response rating, Kochia (kochia (Kochia scoparia); [16]): 100
- Plant response rating, Nutsedge, Yellow [2, 14]: 65
- Plant response rating, Nutsedge, Yellow [2, 15]: 80
- Plant response rating, Nutsedge, Yellow [2, 16]: 80
- Plant response rating, Soybean (soybean (Glycine max); [14]): 85
- Plant response rating, Soybean (soybean (Glycine max); [15]): 98
- Plant response rating, Soybean (soybean (Glycine max); [16]): 98
- Blackgrass plant response rating (0 to 100 scale) ([3]; 13 to 15 days): 10
- Plant response rating, Blackgrass [3, 14]: 5
- Plant response rating, Blackgrass [3, 15]: 20
- Plant response rating, Blackgrass [3, 16]: 25
- Plant response rating, Goosegrass [4, 14]: 80
- Plant response rating, Goosegrass [4, 15]: 90
- Plant response rating, Goosegrass [4, 16]: 90
- Plant response rating, Johnsongrass [5, 14]: 45
- Plant response rating, Johnsongrass [5, 15]: 65
- Plant response rating, Johnsongrass [5, 16]: 75
- Plant response rating, Velvetleaf [6, 14]: 90
- Plant response rating, Velvetleaf [6, 15]: 100
- Plant response rating, Velvetleaf [6, 16]: 100
- Plant response rating, Cocklebur [7, 14]: 98
- Plant response rating, Cocklebur [7, 15]: 100
- Plant response rating, Cocklebur [7, 16]: 100
- Plant response rating, Morningglory [8, 14]: 75
- Plant response rating, Morningglory [8, 15]: 100
- Plant response rating, Morningglory [8, 16]: 100
- Plant response rating, Corn (corn (Zea mays); [14]): 15
- Plant response rating, Corn (corn (Zea mays); [15]): 50
- Plant response rating, Corn (corn (Zea mays); [16]): 60
- Plant response rating, Surinam Grass [9, 14]: 40
- Plant response rating, Surinam Grass [9, 15]: 60
- Plant response rating, Surinam Grass [9, 16]: 75
- Plant response rating, Foxtail, Giant [10, 14]: 70
- Plant response rating, Foxtail, Giant [10, 15]: 75
- Plant response rating, Foxtail, Giant [10, 16]: 85
- Bromegrass, Downy plant response rating (0 to 100 scale) ([11]; 13 to 15 days): 5
- Plant response rating, Bromegrass, Downy [11, 14]: 0
- Plant response rating, Bromegrass, Downy [11, 15]: 50
- Plant response rating, Bromegrass, Downy [11, 16]: 55
- Plant response rating, Cupgrass, Woolly [12, 14]: 65
- Plant response rating, Cupgrass, Woolly [12, 15]: 85
- Plant response rating, Cupgrass, Woolly [12, 16]: 95
- Plant response rating, Oat, Wild (wild oat (Avena fatua); [14]): 10
- Plant response rating, Oat, Wild (wild oat (Avena fatua); [15]): 50
- Plant response rating, Oat, Wild (wild oat (Avena fatua); [16]): 60
- Plant response rating, Crabgrass, Large [13, 14]: 80
- Plant response rating, Crabgrass, Large [13, 15]: 95
- Plant response rating, Crabgrass, Large [13, 16]: 95

Compound: Cc1ccc(-n2c(-c3cc(F)cc(F)c3)ncc(C(=O)C3=C(O)CCCC3=O)c2=O)cc1 [Compound 162]
- Plant response rating, Foxtail, Green [1, 14]: 98
- Plant response rating, Foxtail, Green [1, 15]: 98
- Plant response rating, Foxtail, Green [1, 16]: 100
- Plant response rating, Kochia (kochia (Kochia scoparia); [14]): 20
- Plant response rating, Kochia (kochia (Kochia scoparia); [15]): 75
- Plant response rating, Kochia (kochia (Kochia scoparia); [16]): 80
- Plant response rating, Nutsedge, Yellow [2, 14]: 25
- Plant response rating, Nutsedge, Yellow [2, 15]: 75
- Plant response rating, Nutsedge, Yellow [2, 16]: 80
- Plant response rating, Soybean (soybean (Glycine max); [14]): 98
- Plant response rating, Soybean (soybean (Glycine max); [15]): 100
- Plant response rating, Soybean (soybean (Glycine max); [16]): 100
- Blackgrass plant response rating (0 to 100 scale) ([3]; 13 to 15 days): 40
- Plant response rating, Blackgrass [3, 14]: 30
- Plant response rating, Blackgrass [3, 15]: 55
- Plant response rating, Blackgrass [3, 16]: 65
- Plant response rating, Goosegrass [4, 14]: 60
- Plant response rating, Goosegrass [4, 15]: 90
- Plant response rating, Goosegrass [4, 16]: 98
- Plant response rating, Johnsongrass [5, 14]: 98
- Plant response rating, Johnsongrass [5, 15]: 100
- Plant response rating, Johnsongrass [5, 16]: 100
- Plant response rating, Velvetleaf [6, 14]: 80
- Plant response rating, Velvetleaf [6, 15]: 95
- Plant response rating, Velvetleaf [6, 16]: 100
- Plant response rating, Cocklebur [7, 14]: 100
- Plant response rating, Cocklebur [7, 15]: 100
- Plant response rating, Cocklebur [7, 16]: 100
- Plant response rating, Morningglory [8, 14]: 75
- Plant response rating, Morningglory [8, 15]: 90
- Plant response rating, Morningglory [8, 16]: 100
- Plant response rating, Corn (corn (Zea mays); [14]): 50
- Plant response rating, Corn (corn (Zea mays); [15]): 80
- Plant response rating, Corn (corn (Zea mays); [16]): 85
- Plant response rating, Surinam Grass [9, 14]: 65
- Plant response rating, Surinam Grass [9, 15]: 75
- Plant response rating, Surinam Grass [9, 16]: 85
- Plant response rating, Foxtail, Giant [10, 14]: 85
- Plant response rating, Foxtail, Giant [10, 15]: 98
- Plant response rating, Foxtail, Giant [10, 16]: 98
- Bromegrass, Downy plant response rating (0 to 100 scale) ([11]; 13 to 15 days): 30
- Plant response rating, Bromegrass, Downy [11, 14]: 20
- Plant response rating, Bromegrass, Downy [11, 15]: 45
- Plant response rating, Bromegrass, Downy [11, 16]: 50
- Plant response rating, Cupgrass, Woolly [12, 14]: 90
- Plant response rating, Cupgrass, Woolly [12, 15]: 100
- Plant response rating, Cupgrass, Woolly [12, 16]: 100
- Plant response rating, Oat, Wild (wild oat (Avena fatua); [14]): 35
- Plant response rating, Oat, Wild (wild oat (Avena fatua); [15]): 45
- Plant response rating, Oat, Wild (wild oat (Avena fatua); [16]): 55
- Plant response rating, Crabgrass, Large [13, 14]: 80
- Plant response rating, Crabgrass, Large [13, 15]: 98
- Plant response rating, Crabgrass, Large [13, 16]: 98

Source: patent US8952024B2, “Herbicidal pyrimidone derivatives” (E I du Pont de Nemours and Company, priority 2009, dated 2015)
